{
  "source": "patent US20220233238A1",
  "about": "“DELIVERY CATHETER AND METHOD OF DISEASE TREATMENT” (Neurotronic, Inc., priority 2019, published 2022)",
  "key": {"[1]": {"tested_on": "hepatic, splenic, celiac, right renal and left renal arteries", "conditions": "patient B; for fasting glucose: base 186 mg/dL", "procedure": "(§1) In another example, multiple arteries/tissues were treated for hypertension. […] Patient B had 5 years of hypertension history. Patient B went through the same procedure and ablation treatment method as patient A in Example 3.\nIn another example, multiple arteries/tissues were treated for diabetes."}, "renal artery": {"tested_on": "renal artery", "assay": "Pre-clinical trial: renal artery ethanol ablation (renal denervation) with triple-needle single-balloon catheter"}, "[2]": {"tested_on": "renal arteries, hepatic artery, splenic artery, and the left gastric artery", "conditions": "patient A; for Body weight: base 103 kg; for 24-Hour blood pressure, DBP / 24-Hour blood pressure, SBP: average 24-hour ambulatory; for 24-Hour blood pressure, DBP: base 109; for 24-Hour blood pressure, SBP: base 164; for High-density lipoprotein (HDL): base 39 mg/dL; for Triglycerides: base 336 mg/dL", "procedure": "The targeted arteries for their treatment were renal arteries, hepatic artery, splenic artery, and the left gastric artery.\nIn the procedure, modest sedation per the institution's standard practice was used and no general anesthesia was used. The arteries were engaged using a 7F guiding catheter, introduced via the femoral artery. Angiography was performed of the arteries before intervention. All four arteries were treated in the same procedure. The treatment started at upper body arteries in the order of splenic, hepatic, left gastric, left renal, and right renal arteries. After the initial angiography survey of the hepatic artery, splenic artery and left gastric artery, the rapid-exchange version of the triple-needle single-balloon catheter was advanced through the guiding catheter and into the artery over a guiding wire.\nThe maximum catheter needle span diameter was about 12 mm, and the span diameter was adjustable per artery diameter. […] The function of this balloon was to center the distal head/shaft without over-stretching the artery.\nThe infusion time was within 10 seconds for each application. […] The treatment steps were repeated for the second treatment (balloon inflation, needle deployment, infusion ablation, needle withdrawal, balloon deflation). The total volume of the alcohol used in the two treatments was 1.2 mL for the splenic artery.\nThe same treatment method and procedure steps as in the treatment of the splenic artery were used for common hepatic artery ablation. The catheter was replaced with a fresh catheter for the common hepatic artery ablation. There were two treatments total at about 15 mm apart of each other (between the treatment sites) for the common hepatic artery with the same ablation dosage of 0.6 mL. The total volume of the alcohol used for the hepatic artery ablation was 1.2 mL. After the hepatic treatment, the catheter was placed into the left gastric artery for next ablation treatment. Again, the same treatment method and procedure was used, with the exception that one ablation treatment of 0.6 mL of the alcohol was applied for the left gastric artery. Angiography was performed after the withdrawal of the triple-needle balloon delivery catheter.\nAfter the ablation treatments of the three arteries above, angiography was performed of the renal arteries before intervention. The suitable branches and main arteries were assessed and predetermined for treatment. After the assessment, the triple-needle balloon delivery catheter was advanced through the guiding catheter and over the guiding wire into the branch artery of left renal arteries and stopped just beyond the bifurcated area."}, "hepatic artery": {"tested_on": "hepatic artery", "assay": "Pre-clinical trial: hepatic artery ethanol ablation (hepatic denervation) with triple-needle single-balloon catheter"}, "[3]": {"tested_on": "hepatic, splenic, celiac, right renal and left renal arteries", "conditions": "patient B; for Body weight: base 83 kg", "procedure": "as §1\nIn another example, multiple arteries/tissues were treated for managing body weight. The patient B with 3 years of obesity history had their body weight improved after the ablation procedure. The treated multiple arteries were hepatic, splenic, celiac, right renal and left renal arteries."}, "[4]": {"tested_on": "hepatic, splenic, celiac, right renal and left renal arteries", "conditions": "patient B; for average 24-hour ambulatory blood pressure, DBP: base 79; for average 24-hour ambulatory blood pressure, SBP: base 136", "procedure": "as §1"}, "[5]": {"conditions": "maintained at 3 months follow-up"}},
  "note": "Where “and” joins values, the source holds several entries; their conditions need not be identical. Equal values may be shown once. Entries after “also recorded” stand apart in the source; their conditions may differ. Read-outs that look alike come from different tables or passages of the source.",
  "data": [
    {"smiles": "CCO", "note": "[ethanol]", "values": [
      {"measurement": "fasting glucose level change from baseline", "setting": "[1]; 1-month follow-up", "result": "−50", "unit": "%"},
      {"measurement": "fasting glucose", "setting": "[1]; 1 mo", "result": 92, "unit": "mg/dL"},
      {"measurement": "fasting glucose level change from baseline", "setting": "[1]; 2 weeks follow-up", "result": "−32", "unit": "%"},
      {"measurement": "fasting glucose", "setting": "[1]; 2 wks", "result": 127, "unit": "mg/dL"},
      {"measurement": "HbA1c improvement from the baseline, absolute value", "setting": "[1]; 3 months after the procedure", "result": "−2.1", "unit": "%"},
      {"measurement": "HbA1c percent reduction", "setting": "[1]; 3 months after the procedure, relative to baseline", "result": "~26", "unit": "%"},
      {"measurement": "fasting glucose level reduction from the baseline", "setting": "[1]; 3 months follow-up", "result": "−41", "unit": "%"},
      {"measurement": "fasting glucose", "setting": "[1]; 3 mos", "result": 110, "unit": "mg/dL"},
      {"measurement": "Blood sugar HbA1c", "setting": "[1]; 3 mos, base 8.1%", "result": 6.0, "unit": "%"},
      {"measurement": "histopathologic evaluation of renal arteries and surrounding tissues", "setting": "renal artery; after ethanol ablation, FIG. 11", "result": "renal nerve injury; also recorded: severed renal nerves necrosis"},
      {"measurement": "renal arterial spasms (post-ablation renal angiograms)", "setting": "renal artery; during and after the infusion treatment", "result": "no significant renal arterial spasms"},
      {"measurement": "average renal tissue NE content, treated side", "setting": "renal artery; porcine renal cortex, two weeks after treatment, HPLC, control side 87 ng/g", "result": 4.9, "unit": "ng/g"},
      {"measurement": "reduction in renal norepinephrine concentration", "setting": "renal artery; porcine, two weeks after treatment, treated side vs contralateral untreated renal artery side (control 87 ng/g), total 1.8 mL", "result": 94, "unit": "%"},
      {"measurement": "gross necropsy", "setting": "renal artery; two weeks after treatment", "result": "all treatment related organs were normal"},
      {"measurement": "Body weight", "setting": "[2]; 1 mo post-procedure", "result": 95.6, "unit": "kg"},
      {"measurement": "24-Hour blood pressure, DBP", "setting": "[2]; 1 mo", "result": 87, "unit": "mmHg"},
      {"measurement": "24-Hour blood pressure, SBP", "setting": "[2]; 1 mo", "result": 140, "unit": "mmHg"},
      {"measurement": "High-density lipoprotein (HDL)", "setting": "[2]; 1 mo", "result": 43, "unit": "mg/dL"},
      {"measurement": "Triglycerides", "setting": "[2]; 1 mo", "result": 139, "unit": "mg/dL"},
      {"measurement": "Body weight", "setting": "[2]; 2 wk post-procedure", "result": 96.2, "unit": "kg"},
      {"measurement": "High-density lipoprotein (HDL)", "setting": "[2]; 2 wks", "result": 42, "unit": "mg/dL"},
      {"measurement": "Triglycerides", "setting": "[2]; 2 wks", "result": 160, "unit": "mg/dL"},
      {"measurement": "TG/HDL ratio", "setting": "[2]; 3-month follow-up, 8.6 at baseline, normal range <5", "result": 4.2},
      {"measurement": "24-Hour blood pressure, DBP", "setting": "[2]; 3 mo", "result": 84, "unit": "mmHg"},
      {"measurement": "24-Hour blood pressure, SBP", "setting": "[2]; 3 mo", "result": 141, "unit": "mmHg"},
      {"measurement": "HbA1c value change vs baseline", "setting": "[2]; 3 months follow-up, absolute change", "result": "~−1", "unit": "%"},
      {"measurement": "Body weight", "setting": "[2]; 3 mos post-procedure", "result": 96.2, "unit": "kg"},
      {"measurement": "High-density lipoprotein (HDL)", "setting": "[2]; 3 mos", "result": 40, "unit": "mg/dL"},
      {"measurement": "Triglycerides", "setting": "[2]; 3 mos", "result": 167, "unit": "mg/dL"},
      {"measurement": "Blood sugar level, HbA1c", "setting": "[2]; 3 mos, base 7.5%", "result": 6.6, "unit": "%"},
      {"measurement": "weight loss, reduction", "setting": "[2]; since week 3 (2 wk time point), maintained at 3 months", "result": "about 7%"},
      {"measurement": "triglyceride level reduction", "setting": "[2]; two weeks follow-up", "result": "about 50%"},
      {"measurement": "diastolic (DBP) blood pressure drop from the baseline", "setting": "[2]; [5]", "result": "~20", "unit": "%"},
      {"measurement": "systolic (SBP) blood pressure drop from the baseline", "setting": "[2]; [5]", "result": "about 14%"},
      {"measurement": "arterial spasms (hepatic angiograms)", "setting": "hepatic artery; during and after the infusion treatment, both animals", "result": "no significant arterial spasms"},
      {"measurement": "average liver NE concentration reduction", "setting": "hepatic artery; one value per animal (two animals), two weeks after treatment, vs untreated control animal, 2 x 0.6 mL", "result": "85% and 94%"},
      {"measurement": "gross necropsy", "setting": "hepatic artery; two weeks after the treatment", "result": "all treatment related organs were normal"},
      {"measurement": "Body weight", "setting": "[3]; 1 mo", "result": 79.9, "unit": "kg"},
      {"measurement": "initial body weight loss from the baseline", "setting": "[3]; 2 weeks follow-up", "result": "−4.5", "unit": "%"},
      {"measurement": "Body weight", "setting": "[3]; 2 wks", "result": 79.3, "unit": "kg"},
      {"measurement": "Body weight", "setting": "[3]; 3 mos", "result": 79.1, "unit": "kg"},
      {"measurement": "average 24-hour ambulatory blood pressure, DBP", "setting": "[4]; 1 mo", "result": 61, "unit": "mmHg"},
      {"measurement": "average 24-hour ambulatory blood pressure, SBP", "setting": "[4]; 1 mo", "result": 107, "unit": "mmHg"},
      {"measurement": "diastolic (DBP) blood pressure drop from the baseline", "setting": "[4]; 1 month follow-up", "result": "~23", "unit": "%"},
      {"measurement": "systolic (SBP) blood pressure drop from the baseline", "setting": "[4]; 1 month follow-up", "result": "about 21%"},
      {"measurement": "average 24-hour ambulatory blood pressure, DBP", "setting": "[4]; 3-mo", "result": 66, "unit": "mmHg"},
      {"measurement": "average 24-hour ambulatory blood pressure, SBP", "setting": "[4]; 3-mo", "result": 115, "unit": "mmHg"},
      {"measurement": "DBP percentage drop from baseline level", "setting": "[4]; 3 month follow-up", "result": "about 15%"},
      {"measurement": "SBP percentage drop from baseline level", "setting": "[4]; 3 month follow-up", "result": "about 15%"}
    ]}
  ]
}
